Patent publication US12029728B2, “Small molecules with anti-protozoan activity” (New Mexico Tech University Research Park Corporation, priority 2018, dated 2024)

Experiments:
[1] = tested on: T. cruzi-infected ARPE cells; test: Treatment of T. cruzi-infected ARPE cells, imaging; type: cell-based, Trypanosoma cruzi; settings: for amastigotes in ARPE cultures: 5 days, EVOS imaging; for T. cruzi seen in EVOS image: day 12
Procedure: Four confocal dishes were prepared with 10,000 ARPE cells, which were adhered overnight at 37° C. The four dishes were ARPE control cells, non-infected but 5 μM Compound 2-treated cells, non-treated but infected cells, and infected cells treated with 5 μM Compound 2. For the infected dishes, ARPE media was removed and replaced with 2 mL of infectious amastigotes and trypomastigotes from the ARPE passaged plate. The dishes were then incubated for 2 hours at 37° C. The treated dishes were incubated with 5 μM Compound 2 for 5 days at 37° C., while untreated dishes were incubated in fresh media without Compound 2 for 5 days at 37° C. After the 5-day period, cells were washed 3 times in ARPE media and fixed with 1 mL 4% paraformaldehyde. Cells were visualized using an EVOS cell imaging system. Amastigotes appeared as small, dense, and mostly birefringent in images.
The experiment above was repeated using 1 μM Compound 2.
Four confocal dishes with 10,000 ARPE cells were prepared and adhered overnight at 37° C. The four dishes were: 1) ARPE control cells; 2) non-infected cells treated with 1 μM Compound 2; 3) untreated infected cells; and 4) T. cruzi-infected cells treated with 1 μM Compound 2. For the infected dishes, ARPE media was removed and replaced with 2 mL of infectious amastigotes and trypomastigotes expressing tdTomato (from ARPE passaged plate). The dishes were then incubated overnight for 7 days at 37° C. The untreated dishes were incubated in fresh media without Compound 2 for 7 days at 37° C. After the 7-day incubation period, cells were washed 3 times in ARPE media and fixed with 1 mL 4% paraformaldehyde. tdTomato fluorescence, which is indicative of viable T. cruzi, was then observed via fluorescence microscopy.
ARPE cells were plated in confocal dishes (20,000 cells per dish) and incubated overnight at 37° C. Cells were infected with T. cruzi by incubating cells with T. cruzi amastigotes and trypomastigotes expressing tdTomato (˜2×10^5 cells in total) for 24 hours at 37° C. Uninfected cells served as controls. Following the T. cruzi incubation period, extracellular parasites were removed, and the medium was replaced with DMEM/F12 culture media with or without 1 μM Compound 2. The cells were incubated further for 24 hours at 37° C. Cells were then treated two more times with fresh DMEM/F12 culture media with or without 1 μM Compound 2 and incubated for 24 hours at 37° C. Following fixation of cells in 4% paraformaldehyde, plates were imaged for tdTomato fluorescence, which is indicative of viable T. cruzi, such that the effects of repeated Compound 2 treatment could be compared to a single treatment with Compound 2.
ARPE cells were plated in confocal dishes (20,000 cells per dish) and incubated overnight at 37° C. Cells were infected with T. cruzi by incubating cells with T. cruzi amastigotes and trypomastigotes expressing tdTomato (˜2×10^5 cells in total) for 24 hours at 37° C. before washing dishes three times with DMEM/F12 culture media. Uninfected plates served as controls. The dishes were then treated with 2 μM Compound 2 or left untreated as a control and incubated further for 5 days at 37° C. The treated dish received a single treatment of Compound 2 on day 1. Dishes were washed twice with DMEM/F12 media and fixed in 4% paraformaldehyde before being imaged using confocal microscopy. […] The other Compound 2 dishes that were not incubated with T. cruzi a second time were used as controls. Following fixation of cells in 4% paraformaldehyde, tdTomato fluorescence of the cells was assessed using confocal microscopy.
ARPE cells were plated in confocal dishes (20,000 cells per dish) and incubated overnight at 37° C. Dishes were incubated with T. cruzi amastigotes and trypomastigotes expressing tdTomato (˜2×10^5 cells) for 48 hours at 37° C. Untreated cells served as controls. Cells were then washed 3 times with cell medium, treated with 5 μM Compound 2 or left untreated as a control and incubated further for 2 days at 37° C. […]

[2] = tested on: T. cruzi epimastigotes; test: T. cruzi epimastigote toxicity, visually assessed; type: cell-based, Trypanosoma cruzi; settings: 48 hours at 30° C.
Procedure: A 1:20 working dilution of T. cruzi epimastigotes was prepared in LIT1029 medium from a saturated (˜4×10^6 cells/mL) culture. 100 μL of the 1:20 working dilution was plated, and the epimastigotes were incubated with a compound of the disclosure at varying concentrations for 48 hours at 30° C. Following T. cruzi epimastigote treatment with a compound of the disclosure, the toxicity of compounds towards T. cruzi epimastigotes was visually assessed.

[3] = tested on: T. gondii-infected ARPE cells; test: Treatment of T. gondii-infected ARPE cells, imaging; type: cell-based, Toxoplasma gondii; settings: for T. gondii in ARPE cells: 4 days
Procedure: ARPE cells were cultured at confluency in a 24 well plate. Cells were incubated with T. gondii (ATCC PRA-310) for 1 hour at 37° C. to allow for T. gondii internalization. After the 1-hour T. gondii incubation period, extracellular T. gondii was removed from culture and cells were washed 3 times with cell media. […] Cells were visualized using an EVOS cell imaging system. The effect of a 3-day Compound 2 treatment on T. gondii-infected ARPE cells was also investigated. 2×10^4 ARPE cells were infected with ˜1×10^6 T. gondii parasites as described in the above paragraph. Cells were then incubated with 5 μM Compound 2 for 3 days at 37° C. Following incubation with Compound 2, cells were washed 3 times in cell media, fixed with 4% paraformaldehyde, stained with DAPI, and visualized with confocal microscopy.

[4] = tested on: L. major-infected MDMs; test: L. major-infected human MDMs, quantitative cell bioimaging; type: cell-based, Leishmania major; settings: 1 μM, 5 μM, 10 μM
Procedure: Human MDMs were cultured on glass slides and incubated with metacyclic L. major for 24 hours to allow for internalization of parasites. After the 24-hour L. major incubation period, extracellular parasites were removed from the culture. 24 hours after the removal of extracellular parasites, infected cells were treated with vehicle control (DMSO), 5 μM MTF, 1 μM Compound 2, 5 μM Compound 2, 10 μM Compound 2, 2 μM Compound 7, or 20 μM Compound 7. Following treatment, the cells were fixed with 2% paraformaldehyde and subsequently stained with the DNA stain Hoechst 33342. The stained cover slips were transferred onto glass slides, and quantitative cell bioimaging was utilized to determine the number of amastigotes per 500 cells using a CellInsight CX5 High Content screening platform.

With `O=C(NO)C(c1ccccc1)c1c(-c2ccc3ccccc3c2)[nH]c2ccccc12` (stereo not shown) [Compound 2, N-hydroxy-2-(2-(naphthalen-2-yl)-1H-indol-3-yl)-2-phenylacetamide] the “amastigotes in ARPE cultures” value ([1]; 1 μM) was “absent”, the “intracellular T. cruzi parasites” value ([1]; 1 μM, 7 days, tdTomato fluorescence) was “eradicated” and the “eradication of intracellular T. cruzi and reinfection” value ([1]; 2 μM, second incubation with T. cruzi) was “eradicated intracellular T. cruzi and protected cells from reinfection”. The “T. cruzi in ARPE cells (CherryTomato fluorescence)” value ([1]; 2 μM, two days) was “eradicated T. cruzi”, the “T. cruzi seen in EVOS image” value ([1]; 5 μM for 2 days) was “Small amounts of T. cruzi dots were observed” and the intracellular parasites ([1]; 5 μM, 2 days, after 48 hours infection) was “killed intracellular parasites”. The “amastigotes in ARPE cultures” value ([1]; 5 μM) was “absent”, the “T. cruzi seen in EVOS image” value ([1]; 10 μM for 2 days) was “could not be seen” and the “state of infected ARPE cells after treatment” value ([1]; 4 treatments with 2 μM over 4 days) was “cured”. For the same molecule, the “T. cruzi-infected cell foci in fluorescence images” value ([1]; 5 (μM) for 2 days, day 17) was “Only two T. cruzi-infected cell foci were found”, the tdTomato fluorescence ([1]; 10 (μM) for 2 days, day 17) was “no tdTomato fluorescence was observed” and the “long term treatment efficacy against T. cruzi infection” value ([1]; daily 2 μM for 5 days, then 5 days without treatment) was “long-term full cure”. The parasite death ([1]; one treatment with 2 μM, 5-day incubation) was “full parasite death”, the “T. cruzi infection after treatment” value ([1]; repeated treatment (three times) with 1 μM, every 24 hours) was “eradicated the T. cruzi infection” and the “intracellular T. cruzi and re-infection” value ([1]; single dose of 2 μM, 2 days) was “killed intracellular T. cruzi and protected the cells from re-infection”. For the same molecule, the “T. cruzi infection after treatment” value ([1]; single treatment with 1 μM) was “only a small portion of the T. cruzi infection remaining”, the “Concentration at which T. cruzi epimastigote death is greater than or equal to ~99%” value [2] was 6 µM and the “T. gondii in ARPE cells” value ([3]; 2 μM) was “clearance of T. gondii from ARPE cells”. The “T. gondii infection of ARPE cells” value ([3]; 5 μM, 3 days) was “cleared ARPE cells of T. gondii infection”, the “T. gondii in ARPE cells” value ([3]; 5 μM) was “clearance of T. gondii from ARPE cells” and the “T. gondii infection of ARPE cells” value ([3]; 5 μM, 5 days) was “cleared ARPE cells of T. gondii infection”. For the same molecule, the “total number of parasites per cell” value [4] was “decreased the total number of parasites per cell in a dose dependent manner”.
